Assay [1] has as its target T1, mutant α-GAL (Homo sapiens, UniProt P06280, L300P).
T1 construct: endogenous in cells; host or cells: T cell cultures established from blood of Fabry patients
T1 sequence (P06280 32-429 L300P): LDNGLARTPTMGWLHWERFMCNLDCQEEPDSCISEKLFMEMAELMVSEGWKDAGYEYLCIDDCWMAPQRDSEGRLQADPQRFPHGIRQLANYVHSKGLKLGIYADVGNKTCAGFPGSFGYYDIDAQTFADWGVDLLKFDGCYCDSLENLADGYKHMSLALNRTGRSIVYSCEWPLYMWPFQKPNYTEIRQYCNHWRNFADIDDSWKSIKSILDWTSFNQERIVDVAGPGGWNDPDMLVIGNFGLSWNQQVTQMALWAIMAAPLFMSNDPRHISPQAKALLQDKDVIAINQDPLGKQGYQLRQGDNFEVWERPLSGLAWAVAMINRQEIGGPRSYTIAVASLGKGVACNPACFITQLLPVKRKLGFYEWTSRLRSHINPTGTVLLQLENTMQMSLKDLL
The assay can be described thus: T cell-based α-GAL enhancement assay, T cells from Fabry patients cultured with DGJ. Also noted: key to Enhancement Group / Enhancement ratio: E: enhanceable;; I: enhanceable (intermediate);; NE: not enhanceable;. The gist of the method: (§1)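 T cells expanded from patient or normal blood white cells in RPMI 1640 with serum, about 25 ng/ml IL-2 and PHA at 37° C, 5% CO2. Cultures held between 5×10^5 and 1.5×10^6 cells/ml.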

The target of assay [2] is T2, mutant α-GAL (Homo sapiens, UniProt P06280, DEL358-358).
T2 construct: endogenous in cells; host or cells: T cell cultures established from blood of Fabry patients
T2 sequence (P06280 with tags, fused parts or gaps DEL358-358): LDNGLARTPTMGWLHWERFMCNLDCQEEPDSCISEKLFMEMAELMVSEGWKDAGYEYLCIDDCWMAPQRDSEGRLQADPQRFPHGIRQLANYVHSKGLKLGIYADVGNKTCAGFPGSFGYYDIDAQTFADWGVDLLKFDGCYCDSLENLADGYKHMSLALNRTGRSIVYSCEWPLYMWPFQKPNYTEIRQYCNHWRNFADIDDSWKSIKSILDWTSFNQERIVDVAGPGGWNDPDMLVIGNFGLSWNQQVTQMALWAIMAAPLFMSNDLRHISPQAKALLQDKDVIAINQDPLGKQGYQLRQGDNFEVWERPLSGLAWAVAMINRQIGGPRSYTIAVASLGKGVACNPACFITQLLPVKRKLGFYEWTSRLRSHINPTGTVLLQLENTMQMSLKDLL
Described as above. Also noted: key to Enhancement Group / Enhancement ratio: E: enhanceable;; I: enhanceable (intermediate);; NE: not enhanceable;. Particulars: Fabry patient T cells. An outline of the steps:
as §1

Each structure is given as a SMILES string.

For `OC[C@H]1NC[C@H](O)[C@@H](O)[C@H]1O` [DGJ, 1-deoxygalactonojirimycin], the “Enhancement Group” value in assay [1] (Fabry patient T cells, mutation L300P) was “E”; in assay [2] (mutation dE358), “NE”. The “Activity (% Normal) (+DGJ)” value was 72 % Normal in assay [1] (Fabry patient T cells, mutation L300P, 20 μM DGJ) and 4 % Normal in assay [2] (mutation dE358, 20 μM DGJ). Moreover, the Enhancement ratio in assay [1] (Fabry patient T cells, mutation L300P, +DGJ vs −DGJ) is 36.1; in assay [2] (mutation dE358, +DGJ vs −DGJ), “NE”. In addition, the “increase of activity in the presence of DGJ” value in assay [1] (L300P mutation, T cells) is on record as 37 fold.

The record behind these values is patent publication US11241422B2, “Methods for treatment of Fabry disease” (Amicus Therapeutics, Inc., priority 2006, dated 2022).
